Experimental findings from ChEMBL document CHEMBL1629568 (Antimicrob Agents Chemother, 2009) are described below.

For orientation: Cmax means the highest concentration seen after dosing. The MIC is the smallest concentration in the dilution series that meets the test's criterion for growth inhibition. Low readings indicate greater potency, high ones weaker potency.

Converted amounts (≈) assume the structure as drawn. Where only a bound is given, the exact number is not on record here.

A short description of data set [1]: Cmax in Nocardia brasiliensis HUJEG-1 infected BALB/c mouse at 25 mg/kg, sc every 8 hrs by HPLC. More on the design: dose 25 mg/kg, route subcutaneous. Conditions: in vivo. The data set is classed as ADME, organism-based.
The test system of a further data set is Nocardia brasiliensis. The data set is described as follows: Antimicrobial activity against Nocardia brasiliensis HUJEG-1 by broth microdilution method. In kind it is functional. A general note: Dilution methods test growth across graded concentrations, often in twofold steps.
The nature of data set [2]: Drug level in human plasma at 400 mg/day after 8 hrs. Conditions: read-out: Drug uptake. The data set is classed as ADME, cell-free.

The compound `O=C(O)c1cn(C2CC2)c2cc(N3CCNCC3)c(F)cc2c1=O` [CIPROFLOXACIN] displayed a Cmax in data set [1] of 2250 ng/mL.
For `COc1c(N2C[C@@H]3CCCN[C@@H]3C2)c(F)cc2c(=O)c(C(=O)O)cn(C3CC3)c12` [MOXIFLOXACIN], the MIC in the data set with Nocardia brasiliensis was 0.25 µg/mL (≈ 0.623 µM). The same compound displayed a Cmax in data set [1] of 4300 ng/mL. For the same compound, the concentration at 8 h in data set [2] is > 1000 ng/mL.
